Reference: a melting point compilation (Tetko et al.; mined from patent text by program, amines drawn as free bases though some values may be those of a salt)

SMILES | melting point [°C]
CNC(=NC#N)NCCSCc1nccc(N)n1 | 189 to 190
Cc1nc2ccc3c(c2o1)OC(CN1CCC2(CC1)C(=O)NCN2c1ccccc1)CO3 (stereo unspecified) | 240
CC(C)(C)OC(=O)C(=[N+]=[N-])C(=O)C(SCc1ccccc1)C1CC(=O)N1 (stereo unspecified) | 119
CCN(Cc1ccc(Cl)nc1)C(=NC#N)NC | 122 to 123
Clc1ccc(C#Cc2c3ccccc3c(C#Cc3ccc(Cl)cc3)c3ccccc23)cc1 | 268
CCC1CCc2c(sc3cc(NC(C)=O)ccc3c2=O)C1 (stereo unspecified) | 243
CCOP(=O)(OCC)c1cccc2c(P(=O)(OCC)OCC)cccc12 | 169 to 171
FC(F)c1nc2ccccc2n1-c1nc(Sc2ccccc2)nc(N2CCOCC2)n1 | 245 to 248
Fc1ccc(C2=CCC3(CC2)OCCO3)cc1 | 84 to 85
COC1CCC2C3CCC4CC(=NO)C(C)CC4(C)C3CCC12C (stereo unspecified) | 203 to 211
CC(C)SCCCCCCCCCCCC(=O)Nc1ccccc1OCCCC(=O)O | 82 to 84
COc1ccc(C(=O)N(C(=O)c2ccc(OC)cc2)c2nc3ccc(N(C)C)cc3c(NCc3ccccc3)c2C#N)cc1 | 156
COc1ccc(CN(C)CCCc2ccc(NC(=O)c3cccc4c(=O)c5ccccc5[nH]c34)cc2)cc1 | 155
COc1ccc(/C=C(\C#N)c2ccccc2N)cc1OC1CCCC1 | 81 to 82.5
Cc1ccccc1NC(=O)Nc1ccc(CNC(=O)OC(C)(C)C)cc1 | 200 to 202
CC(CC(Sc1cc(C(C)(C)C)c(O)c(C(C)(C)C)c1)Sc1cc(C(C)(C)C)c(O)c(C(C)(C)C)c1)Sc1cc(C(C)(C)C)c(O)c(C(C)(C)C)c1 (stereo unspecified) | 125 to 126
Cc1ccc(C2=C(c3ccc(S(C)(=O)=O)cc3)CN(C)C2=O)c(C)c1 | 59 to 61
O=C1NN=C(c2ccc(NC(=O)C(F)(F)F)cc2)C2CC12 (stereo unspecified) | 242 to 243
COc1ccc2oc(=O)c(S(=O)(=O)Nc3ccc(F)c(N)c3)cc2c1 | 255 to 260
CCCCCC(c1ccc(OC)cc1OC)C(C(N)=O)c1cc(C(=O)O)ccc1C(C)(C)C (stereo unspecified) | 153 to 154
CCCc1c(C(=O)C(C)C)c2ccc(C(N)=O)cc2n1Cc1ccccc1C(N)=O | 273 to 274
Cc1cccc(NC(=O)NC2N=C(c3ccccc3F)c3ccccc3N(Cc3cc4ccccc4o3)C2=O)c1 (racemic) | 213 to 214
CCN(CC)CCCN1CCC(O)(c2ccccc2)C(C(=O)c2ccccc2)C1 (stereo unspecified) | 76 to 78

SMILES | melting point [°C]
CN1C(=O)CCC2(C)C1=CCc1cc(F)ccc12 (stereo unspecified) | 110 to 111
O=C1c2cccc(SCCC(O)O)c2C(=O)c2cccc(SCCC(O)O)c21 | 238 to 239
CC(=O)NC(Cl)C(Cl)(Cl)CCl (stereo unspecified) | 70 to 72
Cc1cc(C(C)N(O)C(N)=O)c(C)s1 (stereo unspecified) | 146 to 147
CCCCCC(C)C(C)c1cc(O)c2c(c1)OC(C)(C)C1=C2CN(C(C)C(=O)NC(N)=O)CC1 (stereo unspecified) | 95 to 100
CCOC(=O)c1cn(-c2nc(F)c(F)c(NC(C)(C)C)c2F)c2c(Cl)c(F)c(F)cc2c1=O | 145 to 146
O=c1[nH]c2ccc(S(=O)(=O)NCCBr)cc2[nH]c1=O | 261 to 266
O=C1CC2(C(=O)N1)C(=O)N1CCCc3cc(Cl)cc2c31 (stereo unspecified) | 268 to 269
CCc1c(Br)sc2[nH]c(=O)c(=O)[nH]c12 | 295 to 297
COc1ccc(-c2c(Cl)c(CN3C(=O)CCC3=O)nc3sc4c(c23)CCN(Cc2ccccc2)C4)cc1 | 241 to 243
COc1ccc(CN(C)CCCOc2ccc(NC(=O)c3cccc4c(=O)c5cccc(C)c5[nH]c34)cc2)cc1OC | 160
CC1Cc2ccc(Br)cc2C(c2ccc([N+](=O)[O-])cc2)=NN1C(N)=O (stereo unspecified) | 193 to 203
O=C(CCNCc1cc(F)cc(F)c1)Nc1cccc2c1C(=O)c1c(NC(=O)CCNCc3cc(F)cc(F)c3)cccc1C2=O | 190 to 191
N#CC1=C(C2CCCC2)Nc2n[nH]cc2C1c1cccc2nonc12 (stereo unspecified) | 193
CC1(C)C=C(n2cc(C#N)c3ccccc32)c2cc(C#N)ccc2O1 | 192 to 193
O=c1[nH]c2cc(Br)ccc2c(=O)o1 | 280 to 281
CCCN1CCC(Cc2ccc3c(c2)c(Cc2ccc(C(=O)NS(=O)(=O)c4ccccc4C)cc2OC)cn3CCC)C1=O (stereo unspecified) | 98 to 115
O=C(Nc1c(OCc2ccccc2)cccc1C(=O)O)c1ccccc1 | 114 to 116
CC(=O)OCC(=O)C12OCOC1CC1C3CCC4=CC(=O)C=CC4(C)C3(Cl)C(O)CC12C (stereo unspecified) | 244 to 245
CN(C)N=Nc1c(Br)csc1C(N)=O | 194 to 196
COc1ccc(C2=NN(c3ccc(C(C)(C)C)cc3)C(=O)[C@H]3CC=CC[C@@H]23)cc1OC (relative stereo) | 197 to 199
CCCCCCCC(=O)CCCCCC(=O)N[C@@H](C)C(=O)OC | 61 to 64
CCN(CC)CC1CCCCN1CCNC(=O)N1c2ccccc2NC(=O)c2ccccc21 (stereo unspecified) | 123 to 125

Now from value to compound:

melting point [°C] | SMILES
113 to 114 | CCOC(=O)C(=C(c1ccc(F)cc1)c1ccc(F)cc1)c1nnn(CC)n1
108 to 109 | COc1cccc(CC(=O)O)c1OCCCc1cc(OC(C)C)nn1Cc1ccc(Cl)cc1C
110 to 112 | CNCC1=NN=C(c2ccc([N+](=O)[O-])cc2)c2cc3c(cc2C1)OCO3
258 to 259 | CCCCCCCCCOC1C(O)C(CO)OC1n1cnc2c(=O)[nH]c(N)nc21 (stereo unspecified)
149 to 151 | CN(C)C(=O)CC1(C)OCCc2c1[nH]c1ccccc21 (stereo unspecified)
146 to 147 | Cc1nc(N2CCN(CCC3CC3)C2=O)sc1C(=O)NCc1cccnc1
139 to 140 | CNC(=S)Nc1cc(Cl)ccc1C
85 | COc1ccc(C(=[N+]=[N-])c2ccc(OC)cc2)cc1
78 to 81 | CCON=C(C(=O)OCC)C1=CSc2ccccc2S1
139 to 141 | CCOC(=O)C(=O)c1ccc2c(c1)CCO2
171 to 172 | CN1CCCN(c2cc3ccccc3c(=O)[nH]2)CC1
87 to 88 | O=C(O)CCCOc1ccc(C2=CCCCCC2)cc1
254 to 255 | O=c1[nH]c2cc(C(F)(F)F)ccc2n1-c1cc(Cl)cc(Br)c1O
84 to 85 | CC(=O)c1c(-c2ccccc2)nn2ccccc12
60 to 63 | NC(=O)C1CCN(CCOc2ccccc2CCc2ccccc2)CC1
82 to 87 | OCc1cn(-c2ccc(Cl)cn2)cn1
104 to 105 | OCc1ncn2cc(Br)sc12
165 to 166 | Cc1ccc(C2CC(N)=NN2c2ccccc2)cc1 (stereo unspecified)
31 to 32 | CCCCCCCCCC(=O)c1ccc(Br)cc1F
88 | CCOC(=O)CCCNc1ccc(OCC(C)(C)C)c(C#N)c1
113 | Cc1nc(OCc2cccc(C(F)(F)F)c2)c(C(=O)Nc2ccccc2)s1
107 to 109 | OCc1ccc2c(c1)ncn2-c1cccc(Br)c1
129 to 131 | FC(F)Oc1ccc2c(Cc3c(Cl)cncc3Cl)nnc(N3CCOCC3)c2c1
137 to 138 | CCOC(=O)C1=Cc2cc(I)ccc2NC1C(F)(F)F (stereo unspecified)
75 to 77 | CC(=O)Oc1c(C)sc2ccccc12
189 to 191 | CC(C)(C)C(NC(=O)c1ccc(Cl)cc1)NC(=NC#N)NCc1ccncc1 (stereo unspecified)
122 to 125 | CCCc1nc2c(N)nc3cc(OCCN4CCOCC4)ccc3c2s1
158 to 160 | CCCc1nn(C)c2c(=O)n(CCCOc3ccc(OC(C)(C)C(=O)O)cc3)c(C)nc12

melting point [°C] | SMILES
175 to 176 | Cn1c2ccccc2c2sc3ccccc3c21
79 to 80 | c1ccc(-c2ccc(Cc3ccco3)[nH]2)cc1
167 to 168 | O=C1N(Cc2ccc(Cl)s2)c2cccc(Cl)c2C12COc1cc3c(cc12)OCO3 (stereo unspecified)
95 to 96 | CC(C)N(C(=O)n1oc(=O)n(Cc2ccccc2)c1=O)c1ccc(F)cc1
169 to 170 | COc1cc(-c2csc(C(=N)NO)n2)cc(Cl)c1OC
174 to 178 | COc1cc(N2CCN(C)CC2)ccc1-c1cnn2c(N)c(-c3cccc(Cl)c3)c(C)nc12
78 to 79 | CC(=O)Oc1c(C(=O)c2ccccc2Cl)c(C)nn1C
263 | CS(=O)C1(c2ccncc2)CNN=C1c1ccc(F)cc1 (stereo unspecified)
59 to 60 | CCN(CC)CCOc1cccc2c1c1cccc(F)c1n2Cc1ccc(F)cc1
82 to 83 | COCCN1CC(c2ccccc2)NC1=O (stereo unspecified)
120 to 122 | Cc1ccc(-c2ccc(C(=O)CBr)cc2)cc1
147 to 148 | C=C(C)c1c(C)oc2c(NC(=O)c3c(Cl)cccc3Cl)cccc12
45 to 47 | CC(=O)OC1=C(CCCCCCCCC[Si](C)(C)C)C(=O)c2ccccc2C1=O
73 to 74 | CCOC(=O)C(=O)N(c1ccccc1[N+](=O)[O-])C(C)(C)C
199 to 200 | Nc1nccc(-c2c(-c3ccc(F)cc3)ncn2C2CCNCC2)n1
220 to 221 | Cc1cc(C)c(Nc2nc(Nc3ccc(C#N)cc3)nc(Cl)c2Br)c(C)c1
102 | CCNC(=O)c1ccc(F)c(Cl)c1
41.5 to 42.5 | CCc1cccc2ccc(C=O)c(OCOC)c12
157 to 158 | CCOC(=O)Oc1ccc(N)c(C(=O)O)c1
90 to 93 | CCCc1c[nH]c(-c2ccc(Cl)cc2)c1-c1ccc(Cl)cc1
150 to 152 | Clc1nnc(Cc2ccc(OCc3ccccc3)cc2)c2ccccc12
102 to 105 | c1cc(-c2nccs2)cc(-n2cnc3cc(-c4ccoc4)ccc32)c1
221 to 222 | Nc1scc2c1c(=O)oc1ccc3ccccc3c12
100 | CCCNC(=O)CCCc1ccc2c(c1)c(Cc1ccc(C(=O)OC)cc1OC)cn2CCC
207 to 208 | O=C(Nc1cccnn1)N1CCN(c2cc(-c3ccccc3F)ncn2)CC1
208 | COC(=O)c1cc2cc(C=O)ccc2[nH]1
248 | CC(C)(C)OC(=O)COc1ccc(NC(=O)NC(=O)c2ccc(C(N)=S)cc2)cc1
